The target of one experiment is T1, Y2 (Homo sapiens, UniProt P49146).
T1 construct: host or cells: U2OS
T1 sequence (P49146 1-381): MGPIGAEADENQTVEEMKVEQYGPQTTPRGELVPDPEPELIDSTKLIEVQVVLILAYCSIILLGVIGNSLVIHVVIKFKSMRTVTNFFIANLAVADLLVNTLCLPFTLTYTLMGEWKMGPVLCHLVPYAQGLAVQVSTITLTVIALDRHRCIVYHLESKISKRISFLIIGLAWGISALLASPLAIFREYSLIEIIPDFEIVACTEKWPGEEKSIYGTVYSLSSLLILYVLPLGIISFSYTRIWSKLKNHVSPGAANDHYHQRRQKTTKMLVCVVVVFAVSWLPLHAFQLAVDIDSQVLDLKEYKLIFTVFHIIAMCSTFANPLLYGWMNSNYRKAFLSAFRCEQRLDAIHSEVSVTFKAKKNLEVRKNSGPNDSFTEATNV
As to the kind of experiment: Competitive and saturation binding, [^125I]-PYY, U2OS cells with Y2. As to the method:
(§1) Competition binding experiments were performed according to [45]. […] Binding experiments using U2OS cells were optimized and performed in assay buffer (50 mM Tris-Cl pH 7.4, 118 mM NaCl, 5 mM MgCl2, 4.7 mM KCl, 0.1% BSA) for cells stably expressing GHSR and (25 mM HEPES, 120 mM NaCl, 5 mM MgCl2, 4.7 mM KCl, 1 mM CaCl2, 0.5% BSA, 2 g/L glucose) for cells containing receptors Y1, Y2 and Y5. […] Cells were incubated for 60 min at room temperature (RT).
(§2) Experiments were carried out in duplicate at least three times, and Ki was calculated using the Cheng-Prusoff equation.
(§3) Data were analyzed by GraphPad Software (San Diego, CA, USA) and are presented as the means ± SEM. The saturation and competitive binding experiments were analyzed according to [46] using the Cheng-Prusoff equation [33]. The competitive binding curves were plotted compared to the best fit for single-binding site models, and half maximal inhibitory concentration (IC50) values were obtained from nonlinear regression analysis. From saturation binding experiments, the dissociation constant (Kd) and number of binding sites/cell (Bmax) were calculated. Inhibition constants (Ki) were calculated from IC50 values, Kd and the concentration of radioligands.

The target in experiment [1] is T2, GPR10 (Homo sapiens, UniProt P49683).
T2 construct: host or cells: CHO-K1
T2 sequence (P49683 1-370): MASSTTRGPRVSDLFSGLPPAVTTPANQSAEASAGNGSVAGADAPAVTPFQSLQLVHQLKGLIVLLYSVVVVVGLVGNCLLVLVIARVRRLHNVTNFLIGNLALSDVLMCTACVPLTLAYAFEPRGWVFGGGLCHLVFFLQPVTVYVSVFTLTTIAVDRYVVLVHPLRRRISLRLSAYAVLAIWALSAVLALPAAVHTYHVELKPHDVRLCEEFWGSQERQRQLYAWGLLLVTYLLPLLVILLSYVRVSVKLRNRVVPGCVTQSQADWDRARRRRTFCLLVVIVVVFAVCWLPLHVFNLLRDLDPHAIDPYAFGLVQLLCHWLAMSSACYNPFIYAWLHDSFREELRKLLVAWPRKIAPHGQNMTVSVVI
Kind of experiment: Intracellular Ca^2+ mobilization, Fura-2, CHO-K1 cells expressing GPR10. The class given is cell-based. As to conditions: Fura 2 dye; peptides 10^−12 to 10^−5 M; repeated two times in duplicates. On the procedure:
Measuring the intracellular Ca^2+ level in CHO-K1 cells containing GRP10 was performed using the calcium-sensitive dye Fura-2 according to the manufacturer’s protocol (Molecular Devices, Sunnyvale, CA, USA). The day before the experiment, cells were seeded at 40,000 cells/well in 96-well plates in growth media and kept at 37 °C in an incubator with 5% CO2 overnight. Peptides were tested at concentrations from 10^−12 to 10^−5 M. Fura-2 fluorescent dye was detected using a FlexStation 3 fluorometric plate reader (Molecular Devices), and excitation was measured at 340 nm and 380 nm and emission at 510 nm.
Ca^2+ release assay data are shown as the percentage of maximal response, and the results were analyzed by nonlinear regression as log agonist versus response using GraphPad software. Data are representative of at least three experiments, each performed in duplicate.

Experiment [2] deals with T3, Y5 (Homo sapiens, UniProt Q15761).
T3 construct: host or cells: U2OS
T3 sequence (Q15761 1-445): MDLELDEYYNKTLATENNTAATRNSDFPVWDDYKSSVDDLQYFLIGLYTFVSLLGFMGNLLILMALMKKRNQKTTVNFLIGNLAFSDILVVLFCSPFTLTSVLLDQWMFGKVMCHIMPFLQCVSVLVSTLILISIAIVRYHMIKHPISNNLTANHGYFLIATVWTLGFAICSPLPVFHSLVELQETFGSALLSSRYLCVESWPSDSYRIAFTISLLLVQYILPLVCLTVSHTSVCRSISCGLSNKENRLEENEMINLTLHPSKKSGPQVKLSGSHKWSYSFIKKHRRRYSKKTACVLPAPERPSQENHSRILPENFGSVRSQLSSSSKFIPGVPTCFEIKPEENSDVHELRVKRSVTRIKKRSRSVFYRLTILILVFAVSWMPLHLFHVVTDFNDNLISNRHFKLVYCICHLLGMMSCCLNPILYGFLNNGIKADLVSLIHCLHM
Kind of experiment: Competitive and saturation binding, [^125I]-PYY, U2OS cells with Y5. On the procedure:
as §1, §2, §3

For a further experiment, the target named is T4, ORL-1 (Homo sapiens, UniProt P41146).
T4 construct: host or cells: U2OS
T4 sequence (P41146 whole entry): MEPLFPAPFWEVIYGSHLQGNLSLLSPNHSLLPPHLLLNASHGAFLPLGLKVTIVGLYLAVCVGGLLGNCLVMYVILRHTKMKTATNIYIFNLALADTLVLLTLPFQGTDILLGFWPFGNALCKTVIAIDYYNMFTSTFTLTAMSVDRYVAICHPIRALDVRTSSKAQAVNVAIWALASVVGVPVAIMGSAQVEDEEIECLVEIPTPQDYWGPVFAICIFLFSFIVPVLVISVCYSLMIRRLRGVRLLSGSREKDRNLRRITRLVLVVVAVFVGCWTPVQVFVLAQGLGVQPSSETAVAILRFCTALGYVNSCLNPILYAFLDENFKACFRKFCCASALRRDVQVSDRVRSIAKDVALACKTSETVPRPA
As to the kind of experiment: Beta-lactamase reporter gene assay (FRET), ORL-1. The class given is cell-based. As to conditions: β-lactamase assay, agonist mode, U2OS cells; mean ± SEM, 2–3 independent experiments in duplicates. On the technique in general: Reporter assays use an easily measured gene product as a stand-in for the process of interest.

Experiment [3] deals with T3, Y5. Kind of experiment: Beta-lactamase reporter gene assay (FRET), Y5. The class given is cell-based.
A further experiment deals with T5, GHSR (Homo sapiens, UniProt Q92847).
T5 construct: host or cells: U2OS
T5 sequence (Q92847 whole entry): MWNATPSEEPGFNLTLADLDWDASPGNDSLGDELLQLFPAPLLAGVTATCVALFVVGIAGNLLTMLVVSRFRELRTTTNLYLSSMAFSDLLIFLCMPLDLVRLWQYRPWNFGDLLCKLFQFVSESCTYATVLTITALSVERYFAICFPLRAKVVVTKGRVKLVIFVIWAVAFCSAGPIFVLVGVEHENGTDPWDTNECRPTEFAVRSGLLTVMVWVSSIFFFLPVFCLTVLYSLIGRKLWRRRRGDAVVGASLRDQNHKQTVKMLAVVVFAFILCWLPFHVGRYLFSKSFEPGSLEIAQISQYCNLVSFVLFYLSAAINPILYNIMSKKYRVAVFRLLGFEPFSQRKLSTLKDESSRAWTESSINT
As to the kind of experiment: Beta-lactamase reporter gene assay (FRET), GHSR. The experiment is classed as cell-based.

Experiment [4] has as its target T2, GPR10. Kind of experiment: Competitive binding, [^125I]-PrRP31, CHO-K1 cells expressing GPR10.
For experiment [5], the target named is T2, GPR10. Kind of experiment: Beta-lactamase reporter gene assay (FRET), GPR10. The experiment is classed as cell-based. As to conditions: β-lactamase assay, agonist mode, CHO-K1 cells; mean ± SEM, 2–3 independent experiments in duplicates.

No end group written: not given here.

As usually defined, the Ki is a dissociation constant, usually derived from enzyme kinetics or from competition with a known ligand. By EC50 is commonly meant the concentration giving half of the maximal effect. High values mean a need for much substance, low ones an effect from little substance.

Regarding `CCCCCCCCCCCCCCCC(=O)N[C@@H](CO)C(=O)N[C@@H](CCCNC(=N)N)C(=O)N[C@H](C(=O)N[C@@H](Cc1c[nH]cn1)C(=O)N[C@@H](CCCNC(=N)N)C(=O)N[C@@H](Cc1c[nH]cn1)C(=O)N[C@@H](CO)C(=O)N[C@@H](CCSC)C(=O)N[C@@H](CCC(=O)O)C(=O)N[C@H](C(=O)N[C@@H](CCCNC(=N)N)C(=O)N[C@H](C(=O)N1CCC[C@H]1C(=O)N[C@@H](CC(=O)O)C(=O)N[C@H](C(=O)N[C@@H](CC(N)=O)C(=O)N1CCC[C@H]1C(=O)N[C@@H](C)C(=O)N[C@@H](Cc1c[nH]c2ccccc12)C(=O)N[C@@H](Cc1ccc(O)cc1)C(=O)N[C@@H](C)C(=O)N[C@@H](CO)C(=O)N[C@@H](CCCNC(=N)N)C(=O)NCC(=O)N[C@H](C(=O)N[C@@H](CCCNC(=N)N)C(=O)N1CCC[C@H]1C(=O)N[C@H](C(=O)NCC(=O)N[C@@H](CCCNC(=N)N)C(=O)N[C@@H](Cc1ccccc1)C(N)=O)C(C)C)[C@@H](C)CC)[C@@H](C)CC)[C@@H](C)O)[C@@H](C)CC)[C@@H](C)O` [Palm-PrRP31], the Ki was more than 10000 nM on Y2 and 32.6 ± 6.16 nM at Y5 [2]. The “Ca^2+ mobilization in CHO-K1 cells expressing GPR10” value on GPR10 [1] is given as “stimulated Ca^2+ mobilization”. Further, the EC50 is more than 10000 nM at ORL-1 and 56.5 ± 18.4 nM on Y5 [3].
For “SRAHQHSMETRTPDINPAWYTGRGIRPVGRF-NH2 [PrRP31, prolactin-releasing peptide 31, reference compound]”, the EC50 on GHSR was more than 10000 nM; at ORL-1 it was more than 10000 nM; at Y5 [3] it was more than 10000 nM; at GPR10 [5], 0.53 ± 0.0705 nM. Moreover, the figures for the Ki at Y2, at Y5 [2] and on GPR10 [4] were more than 10000 nM, 2860 ± 43 nM and 4.58 ± 0.66 nM, respectively.

For the origin of these results see publication PMC8396344, “Palmitoylation of Prolactin-Releasing Peptide Increased Affinity for and Activation of the GPR10, NPFF-R2 and NPFF-R1 Receptors: In Vitro Study” (International Journal of Molecular Sciences, 2021).
